According to patent US20220169632A1, “METHODS AND MATERIALS FOR INCREASING OR MAINTAINING NICOTINAMIDE MONONUCLEOTIDE ADENYLYL TRANSFERASE-2 (NMNAT2) POLYPEPTIDE LEVELS” (University of Pittsburgh - Of the Commonwealth System of …, priority 2019, published 2022):
pIC50: −log10 of the molar value.

System: NMNAT2-V5 polypeptide
Test: NMNAT2-V5 polypeptide expression in transfected Beas2B cells (Western blot), dose dependent, 24 h
Type: cell-based
Conditions: Beas2B cells transfected with NMNAT2-V5 plasmid, compound for 24 hours, read-out: A: compound efficacy (IC50) for NMNAT2 activation
Protocol: FIG. 1. Beas2B cells were transfected with NMNAT2-V5 plasmid. 24 hours later, cells were treated with compounds in a dose dependent manner (0, 1, 5, and 25 μM) for additional 24 hours. Cells were then collected and assayed for NMNAT2-V5 protein expression.
Selected compounds were tested in vitro. Briefly, Beas2B cells were transfected with NMNAT2-V5 plasmid. 24 hours later, cells were treated with a test compound in a dose dependent manner for additional 24 hours. Cells were then collected and assayed for NMNAT2-V5 polypeptide expression. Results of the assay are shown in Table A. Western blots showing levels of NMNAT2-V5 polypeptide for selected compounds are shown in FIG. 1.

Row | pIC50 | SMILES
1 | 4.60 to 5.30 | CC(=O)Nc1ccc(NC(=O)c2ccccc2OCc2nc(-c3ccc(C)cc3)ns2)cc1 [BC18137]
2 | ≤ 4.60 | COc1cccc(NS(=O)(=O)c2ccc3[nH]cc(C(=O)NC(C)c4ccc5c(c4)OCCO5)c(=O)c3c2)c1 (centres unmarked) [BC18134]
3 | 4.60 to 5.30 | COc1ccc(OC)c(CCNC(=O)C(Cc2ccccc2)N2Cc3ccccc3C2=O)c1 (centres unmarked) [BC18133]
4 | 4.60 to 5.30 | COc1ccc(OC)c(CCNC(=O)C(Cc2ccccc2)N2Cc3ccccc3C2)c1 (centres unmarked) [BC18117]
5 | ≤ 4.60 | CN(CCc1nsc(-c2ccc(C(=O)NCc3ccc4c(c3)OCO4)cc2)n1)C(=O)c1ccccc1 [BC18121]
6 | 4.60 to 5.30 | CCn1cc(C(=O)NC(C)c2ccc3c(c2)OCCO3)c(=O)c2cc(S(=O)(=O)N3CCc4ccccc4C3)ccc21 (centres unmarked) [BC18131]
7 | 4.60 to 5.30 | COc1ccc(OC)c(CCNC(=O)C(Cc2ccccc2)N2Cc3ccccc3C2=O)c1 (centres unmarked) [BC18138]
8 | > 5.30 | Cc1n[nH]c(/C=C/c2ccc(N)cc2)c1S(=O)(=O)N1CCC(C(=O)N2CCN(Cc3ccc4c(c3)OCO4)CC2)CC1 [BC18123]

The remaining lines, values behind:

Row | SMILES | pIC50
9 | CC(=O)Nc1ccc(NC(=O)c2ccccc2OCc2nc(-c3ccc(C)cc3)ns2)cc1 [BC18116] | ≤ 4.60
10 | Cc1cc(C)n(CC(=O)NCc2ccco2)c(=O)c1C#N [BC18128] | > 5.30
11 | N#Cc1nc(-c2ccc(COc3ccccc3)s2)sc1OCCc1ccc(ON)cc1 [BC18135] | ≤ 4.60
12 | O=C(CCc1nnc2n(Cc3ccccc3)c(=O)c3ccccc3n12)N1CCN(CCOc2ccc(Cl)cc2)CC1 [BC18120] | > 5.30
13 | Cc1ccc2onc(CNC(=O)NCc3ccccn3)c2c1 [BC18129] | 4.60 to 5.30
14 | O=C(COCc1cc(-c2cccs2)sn1)NCCN1CCC(Cc2ccccc2)CC1 [BC18136] | ≤ 4.60
15 | O=C(Cn1c(=O)[nH]c2ccccc2c1=O)NCc1ccncc1 [BC18122] | 4.60 to 5.30
16 | O=C(COCc1cc(-c2cccs2)sn1)NCCN1CCC(Cc2ccccc2)CC1 [BC18115] | 4.60 to 5.30
17 | O=C(CSC1=Nc2ccccc2C2=NC(CCC(=O)N3CCN(c4ccccc4)CC3)C(=O)C12)NCC1CCCO1 (centres unmarked) [BC18130] | 4.60 to 5.30
